Structures are written as SMILES.

alanyl aminopeptidases (APN), sequence (P15144 whole entry, species assumed): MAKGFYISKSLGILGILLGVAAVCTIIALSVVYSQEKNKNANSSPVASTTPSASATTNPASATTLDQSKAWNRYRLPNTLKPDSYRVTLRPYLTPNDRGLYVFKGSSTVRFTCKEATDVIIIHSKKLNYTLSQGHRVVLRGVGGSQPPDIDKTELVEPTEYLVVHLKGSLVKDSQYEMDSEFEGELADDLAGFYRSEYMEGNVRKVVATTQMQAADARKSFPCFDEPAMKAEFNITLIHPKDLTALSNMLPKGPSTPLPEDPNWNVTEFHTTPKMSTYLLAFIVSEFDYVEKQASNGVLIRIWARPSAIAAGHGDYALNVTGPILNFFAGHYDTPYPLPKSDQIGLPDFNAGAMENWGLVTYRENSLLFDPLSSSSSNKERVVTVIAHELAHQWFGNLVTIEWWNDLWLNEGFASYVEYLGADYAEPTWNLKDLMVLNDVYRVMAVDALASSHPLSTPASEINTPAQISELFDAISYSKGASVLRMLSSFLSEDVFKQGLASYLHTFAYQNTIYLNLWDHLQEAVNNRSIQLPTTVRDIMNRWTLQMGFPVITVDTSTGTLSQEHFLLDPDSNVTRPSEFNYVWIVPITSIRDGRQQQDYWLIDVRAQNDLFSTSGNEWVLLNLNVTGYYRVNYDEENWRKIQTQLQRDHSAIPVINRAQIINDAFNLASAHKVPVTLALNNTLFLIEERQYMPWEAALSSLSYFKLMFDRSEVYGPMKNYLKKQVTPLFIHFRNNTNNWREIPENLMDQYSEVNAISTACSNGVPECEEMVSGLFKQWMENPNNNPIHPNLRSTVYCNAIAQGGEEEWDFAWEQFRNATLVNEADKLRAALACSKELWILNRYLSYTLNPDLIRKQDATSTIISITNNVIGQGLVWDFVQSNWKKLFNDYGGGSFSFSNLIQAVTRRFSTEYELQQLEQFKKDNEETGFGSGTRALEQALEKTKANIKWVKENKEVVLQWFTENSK

One assay concerns the target alanyl aminopeptidases (APN) (Homo sapiens, UniProt P15144). In words: Inhibition of alanyl aminopeptidase enzymatic activity, fluorogenic substrate (Ala)2-rhodamine 110. It is filed as biochemical. The conditions noted are these: Table 3, starred values = ID50; read-out: ID50 APN (values marked with *). The procedure:
The inhibition characteristics measured are referred to as IC-50 values or ID50 values (the latter marked with “*”) for said enzyme. The enzymatic activity was determined by means of the fluorogenic substrate/product (Ala)2-rhodamine 110.
For `O=C(N/N=C\C=C\c1ccco1)c1cc(-c2cccs2)n[nH]1` [A3.324], the IC50 worked out at 132 µM.

The assay is the same for the next values; noted with them: Table 3, unstarred values.
Regarding `COC(=O)C1=C(N)N2C(=O)CSC2=C(C(=O)OC)C1` [A3.001], the IC50APN entry is ““very high”.

The same assay, now with this note: Table 3, unstarred values; read-out: IC50APN.
Take `O=C(N/N=C\c1ccco1)c1cnccn1` [A3.185]: the IC50 is 30.1 µM.
On the same count and under the same terms, in the case of `Cc1ccc(/C=N/NC(=O)c2ccccc2OCc2ccccc2)o1` [A3.090] it was 18.4 µM; in that of `O=C(C1c2ccccc2Oc2ccccc21)n1cc(Cl)cn1` [A3.179], 29.1 µM.
Regarding `Cc1ccc(C(=O)N/C(=C/c2ccco2)C(=O)N(C)C)cc1` [A3.198], the IC50 amounted to 32.5 µM.
On the same count and under the same terms, in the case of `COc1ccc(CCCC(=O)N/N=C/c2ccco2)cc1` [A3.141] it was 23.4 µM; in that of `Cc1ccc(/C=N/NC(=O)c2cccc(NC(=O)c3ccccc3C)c2)o1` [A3.093], 18.9 µM; in that of `CSc1nnc2n(/N=C/c3ccco3)cnn12` [A3.213], 34.7 µM.

The same assay, now with this note: Table 4, starred values = ID50; read-out: ID50 APN (values marked with *).
Take `C/C(=N\NC(=O)COc1ccc(C)cc1[N+](=O)[O-])c1ccco1` [A4.187]: the IC50 was determined as 422 µM.

Staying with this assay, now noted: Table 4, unstarred values; read-out: IC50APN.
Consider `O=C(Cc1ccc(Br)c2ccccc12)N/N=C/c1ccc([N+](=O)[O-])c(O)c1` [A4.009], for which the IC50 came to 7 µM.
Still for that read-out and setting: in the case of `O=C(N/N=C\c1ccco1)c1ccc(Br)cc1` [A4.074] it was 24.5 µM.
On the same count and under the same terms, the value for `Cc1nn(-c2ccccc2)c(C)c1-c1cc(C(=O)N/N=C/c2ccco2)[nH]n1` [A4.087] was 27.4 µM; that for `CCCCCC(=O)N/N=C/c1ccco1` [A4.085] was 26.7 µM; that for `O=C(N/N=C/c1ccco1)c1ccccc1[N+](=O)[O-]` [A4.172] was 91.2 µM.
`O=C(CNC(=O)c1ccccc1F)N/N=C/c1ccc([N+](=O)[O-])o1` [A4.150]: the IC50 worked out at 60 µM.
On to `Cc1ccc(OCC(=O)N/N=C/c2ccco2)cc1C` [A4.117], for which the IC50 worked out at 36.3 µM.
Still for that read-out and setting: the value for `O=C(N/N=C/c1ccco1)c1cccc(NC(=O)c2cccc(Br)c2)c1` [A4.064] was 22.4 µM.
Same read-out and setting: the value for `Cc1ccc(/C=N/NC(=O)c2ccc(N3CCCC3=O)cc2)o1` [A4.129] was 44.2 µM; that for `Cc1ccc(/C=N/NC(=O)c2ccccc2OCc2ccccc2)o1` [A4.045] was 18.4 µM.

Staying with this assay, now noted: Table 5, unstarred values; read-out: IC50APN.
As for `CC1(C)CC(CC/N=C/c2ccccc2)(Cc2ccccc2)CCO1` (centres unmarked) [A5.006], the IC50 was determined as 93.6 µM.

The same assay, now with this note: Table 8, unstarred values; read-out: IC50APN.
As to `Cc1cccc(C)c1Nc1c(-c2ccccc2NC(=O)Nc2ccc(OC(F)(F)F)cc2)nc2c(C(=O)NCC(C)C)cccn12` [A8.027], the IC50 worked out at 31.4 µM.

Staying with this assay, now noted: Table 9, starred values = ID50; read-out: ID50 APN (values marked with *).
Turning to `O=c1cc(CSc2nnc(-c3ccco3)c(-c3ccco3)n2)c2ccccc2[nH]1` [A9.107], the IC50 is 65.1 µM.

Still in this assay, the particulars now being: Table 9, unstarred values; read-out: IC50APN.
In the case of `O=C1Nc2cc(C(=O)N3CCN(c4ccccc4)CC3)ccc2NC1CSCc1ccccc1F` (centres unmarked) [A9.106], the IC50 stood at 61.5 µM.
As to `O=C(N/C(=C\c1ccco1)C(=O)N1CCOCC1)c1ccco1` [A9.029], the IC50 was 13.5 µM.
Still for that read-out and setting: in the case of `Cc1cc(C)n(-c2nnc(N)nn2)n1` [A9.048] it was 20.3 µM; in that of `O=C(O)c1cc2nc(-c3ccco3)cc(C(F)(F)Cl)n2n1` [A9.028], 13.2 µM; in that of `COC(=O)c1cc(-c2ccc(/C=C3\C(=O)N(CCCO)C(=O)C(C#N)=C3C)o2)ccc1Cl` [A9.036], 15.2 µM.
Same read-out and setting: in the case of `O=C1c2cccc3c(Br)c([N+](=O)[O-])cc(c23)C(=O)N1c1cccc([N+](=O)[O-])c1` [A9.062] it was 23.3 µM; in that of `CC1=C(C#N)C(=O)N=C(O)/C1=C\c1ccc(-c2ccc(Cl)cc2Cl)o1` [A9.080], 30.3 µM.
Same read-out and setting: in the case of `O=C(O)C1N=NC(c2ccc(F)cc2)=CN1O` (centres unmarked) [A9.038] it was 17.1 µM; in that of `CCc1c(C)nc2ccccc2c1SCC(=O)O` [A9.112], 77.4 µM; in that of `Cc1ccc(C(=O)N/C(=C\c2ccco2)C(=O)N2CC3CC(C2)c2cccc(=O)n2C3)cc1C` (centres unmarked) [A9.026], 11.8 µM.

Staying with this assay, now noted: Table 12; read-out: IC50APN.
For `CCOC(=O)c1ccc(-c2ccc(/C=C3\C(=O)N(CCO)C(=O)C(C#N)=C3C)o2)cc1` [A12.004], the IC50 was 2.7 µM.

Still in this assay, the particulars now being: Table 13; read-out: IC50APN.
`CC1=C(C#N)C(=O)N(CC(C)O)C(=O)/C1=C/c1ccc(-c2ccc(Br)cc2)o1` (centres unmarked) [A13.021]: the IC50 was 47.2 µM.
